MIC and inhibition data for 7 compounds are collected here from ChEMBL document CHEMBL3227988, “Synthesis and antiviral activities of arabinofuranosyl-5-ethylpyrimidine nucleosides. Selective antiherpes activity of 1-(beta-D-arabinofuranosyl)-5-ethyluracil” (J Med Chem, 1979).

In brackets after ≈: the same amount, converted by molar mass. Activity calls are given as the source filed them. The rule behind the calls is not given here.

One assay deals with Vaccinia virus. Briefly: Antiviral activity against Vaccinia virus infected in primary rabbit kidney cells assessed as inhibition of virus-induced cytopathogenicity treated immediately after virus adsorption measured 2 to 3 days after virus infection. It counts as functional. The settings on record: Orthopoxvirus vaccinia. On the technique in general: Damage to the host cells serves as the signal in cytopathic effect assays.
As for `Cc1cn([C@@H]2O[C@H](CO)[C@@H](O)[C@@H]2O)c(=O)[nH]c1=O`, the MIC is 4 µg/mL (≈ 15.5 µM). Consider `CCc1cn([C@@H]2O[C@H](CO)[C@@H](O)[C@@H]2O)c(=O)[nH]c1=O`, for which the MIC was greater than 200 µg/mL. `CCc1cn([C@@H]2O[C@H](CO)[C@@H](O)[C@@H]2O)c(=O)nc1N`: the MIC was greater than 200 µg/mL.

With `Nc1ccn([C@@H]2O[C@H](CO)[C@@H](O)[C@@H]2O)c(=O)n1` [CYTARABINE], the MIC is 0.02 µg/mL (≈ 0.0822 µM). The same measure, in the same setting: with `O=c1ccn([C@@H]2O[C@H](CO)[C@@H](O)[C@@H]2O)c(=O)[nH]1` [ARAURIDINE] the figure was greater than 200 µg/mL.

The subject of the next assay is Vaccinia virus. Kind of assay: Antiviral activity against Vaccinia virus infected in primary rabbit kidney cells assessed as inhibition of virus-induced cytopathogenicity at 200 ug/ml treated immediately after virus adsorption measured 2 to 3 days after virus infection. In kind it is functional, organism-based. The following applies: Orthopoxvirus vaccinia.
For the compound `CCc1cn([C@H]2O[C@H](CO)[C@@H](O)[C@@H]2O)c(=O)nc1N`, the inhibition entry was “inactive”. Same read-out and setting: the value for `CCc1cn([C@H]2O[C@H](CO)[C@@H](O)[C@@H]2O)c(=O)[nH]c1=O` was “inactive”.
